Values of other authors as cited in patent publication US7612214B2, “Organic amine salts of glutamic acid derivatives and their application” (Ajinomoto Co., Inc., priority 2003, dated 2009).
Where “and” joins values, the source holds several entries; their conditions need not be identical. Equal entries are not always repeated.

Details: (2S,4S) isomer derived from the natural plant; literature report (Vleggaar et al.)

## N[C@@H](C[C@@](O)(Cc1c[nH]c2ccccc12)C(=O)O)C(=O)O [(2S,4S) isomer, (2S,4S)-2-amino-4-carboxy-4-hydroxy-5-(3-indolyl)pentanoic acid]
  degree of sweetness: 800 times of sucrose and 1400 times of sucrose
